Measured values: BindingDB's records for PubMed 36240545 (n/a, 2022)

Molecular target: T1, X-box-binding protein 1 (Homo sapiens, UniProt P17861)
T1 sequence (P17861 whole entry): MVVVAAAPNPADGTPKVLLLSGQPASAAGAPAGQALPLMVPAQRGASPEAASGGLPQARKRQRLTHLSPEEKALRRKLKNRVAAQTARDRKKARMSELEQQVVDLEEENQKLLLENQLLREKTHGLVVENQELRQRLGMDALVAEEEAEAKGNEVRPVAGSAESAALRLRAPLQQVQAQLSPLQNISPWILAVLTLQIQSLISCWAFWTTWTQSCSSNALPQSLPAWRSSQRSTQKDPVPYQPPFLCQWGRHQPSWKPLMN
Assay: Inhibition of thapsigargin-induced XBP1-luciferase activation in human HeLa cells incubated for 24 hrs by luciferase assay

IC50: 67 µM
Structure (SMILES): CO[C@H]1/C=C/C=C/C=C/C[C@H](OC(=O)[C@@H](C)NC(=O)C2CCCCC2)[C@H](C)[C@@H](O)/C(C)=C\CCC2=C(SC)C(=O)C=C(NC(=O)C1)C2=O
